From patent publication US10028961B2, “Therapeutically active compounds and their methods of use” (AGIOS PHARMACEUTICALS, INC., priority 2013, dated 2018)
Where two headings read alike, the source gives them in different places.

Columns and labels:
[1] = target: IDH1 wt/IDH1 R132H heterodimer (Homo sapiens (Human), UniProt O75874, R132H); assay: In vitro assay for IDH1m R132H inhibitors, IDH1 wt/IDH1 R132H heterodimer, NADPH depletion (diaphorase/resazurin); type: biochemical
Method in brief: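 Purified IDH1wt-his/IDH1R132H-flag heterodimer (sf9 co-expression) pre-incubated 1 hr at room temperature with compound and NADPH before α-KG addition. Remaining NADPH read by diaphorase/resazurin conversion to fluorescent resorufin, 5 min at 25° C. Compounds diluted 1:50 from DMSO; IC50 determined.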

[2] = target: IDH1 wt/IDH1 R132C heterodimer (Homo sapiens (Human), UniProt O75874, R132C); assay: In vitro assay for IDH1m R132C inhibitors, IDH1 wt/IDH1 R132C heterodimer, NADPH depletion (diaphorase/resazurin); type: biochemical; settings: NADPH/NADP
IDH1 wt/IDH1 R132C heterodimer, sequence (O75874 whole entry R132C): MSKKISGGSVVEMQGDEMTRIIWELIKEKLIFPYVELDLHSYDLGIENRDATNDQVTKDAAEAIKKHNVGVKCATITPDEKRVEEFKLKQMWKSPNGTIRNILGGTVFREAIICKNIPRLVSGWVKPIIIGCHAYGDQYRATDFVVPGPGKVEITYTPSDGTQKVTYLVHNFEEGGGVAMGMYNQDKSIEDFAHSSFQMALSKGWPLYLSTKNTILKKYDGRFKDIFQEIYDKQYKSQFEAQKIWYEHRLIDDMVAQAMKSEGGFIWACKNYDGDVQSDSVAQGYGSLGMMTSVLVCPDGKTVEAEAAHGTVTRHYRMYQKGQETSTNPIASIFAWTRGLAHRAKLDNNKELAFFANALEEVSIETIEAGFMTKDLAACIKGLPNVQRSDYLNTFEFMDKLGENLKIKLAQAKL
IDH1 wt/IDH1 R132C heterodimer, sequence (O75874 whole entry, stated change not applied): as the sequence (O75874 whole entry R132C) above, with C132R counted along it
Protocol: The following describes the experimental procedures that can be used to obtain data on columns 2 and 4 of Table 4 and column 2 of Table 5.
In the primary reaction, the reduction of α-KG acid to 2-HG is accompanied by a concomitant oxidation of NADPH to NADP. The amount of NADPH remaining at the end of the reaction time is measured in a secondary diaphorase/resazurin reaction in which the NADPH is consumed in a 1:1 molar ratio with the conversion of resazurin to the highly fluorescent resorufin.
The mixture of compound, enzyme, and cofactor is pre-incubated at room temperature for 1 hr prior to the addition of alpha-ketoglutarate. To perform the secondary reaction, 10 uL of 1× buffer containing 36 μg/ml diaphorase and […] resazurin is added to the primary reaction and incubated for a further 5 minutes at 25° C. Florescence is read on a Spectramax platereader at Ex 544 Em 590. Compounds or compound dilutions are prepared in 100% DMSO concentration and diluted 1:50 into the final reaction. […] IC50s are determined.
IDH1 or IDH2 wildtype (wt) and mutant heterodimers are expressed and purified by methods known in the art. For example, IDH1wt/R132m heterodimer is expressed and purified as follows. Co-expression of IDH1wt-his and IDH1R132C-flag is carried out in sf9 insect cells. Cells (25 g) are resuspended in 250 ml of 50 mM Tirs, 500 mM NaCl, pH7.4, at 4° C. with stirring. Cells are disrupted with 4 passes through an M-Y110 Micro fluidizer (Microfluidics) set to 500 psi, and then centrifuged at 22,000 rcf for 20 min at 4° C. The supernatant is harvested and loaded at 15 cm/h on a Histrap FF 5*1 ml column (GE) which is equilibrated with 50 mM Tirs, 500 mM NaCl, pH7.4. Host cell contaminants are removed by washing the column with equilibration buffer followed by equilibration buffer containing 20 mM imidazole and 60 mM imidazole to baseline. IDH1wt-his homodimer and IDH1wt-his/IDH1R132C-flag are eluted by equilibration buffer containing 250 mM imidazole. Fractions eluted by 250 mM imidazole are pooled together and loaded at 15 cm/h onto a column pre-packed with 10 ml ANTI-FLAG® M2 Affinity Gel (Sigma), the column is equilibrated with 50 mM Tris, 500 mM NaCl, pH7.4. After washing with equilibration buffer, IDH1wt-his/IDH1R132C-flag heterodimer is eluted by equilibration buffer containing flag peptide (0.2 mg/ml). Aliquots of IDH1wt-his/IDH1R132C-flag are flash frozen in liquid N2 and stored at −80° C. Same conditions are used for the purification of IDH1wt-his/IDH1R132H-flag.

[3] = target: IDH1-R132H homodimer enzyme (Homo sapiens (Human), UniProt O75874, R132H); assay: In vitro assay IDH1-R132H homodimer, NADPH depletion assay with NADPH/NADP preincubation; type: biochemical; settings: 5 μM NADPH and 37.5 μM NADP
IDH1-R132H homodimer enzyme, sequence (O75874 whole entry R132H): as the sequence (O75874 whole entry R132C) above, with C132H counted along it
Method in brief: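 Conversion of alpha-ketoglutarate to 2-hydroxyglutarate tracked by NADPH depletion. Reaction started with 5 mM alpha-ketoglutarate plus NADPH substrate mix (50 μl total), 60 min at room temperature. Leftover NADPH quantified via diaphorase/resazurin fluorescence.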

IDH2 R140Q = IDH2 R140Q (Homo sapiens (Human), UniProt P48735, R140Q); assay: In vitro assay for IDH2m R140Q inhibitors, cofactor depletion assay; type: biochemical; settings: IDH2 R140Q enzyme
IDH2 R140Q, sequence (P48735 40-452 R140Q): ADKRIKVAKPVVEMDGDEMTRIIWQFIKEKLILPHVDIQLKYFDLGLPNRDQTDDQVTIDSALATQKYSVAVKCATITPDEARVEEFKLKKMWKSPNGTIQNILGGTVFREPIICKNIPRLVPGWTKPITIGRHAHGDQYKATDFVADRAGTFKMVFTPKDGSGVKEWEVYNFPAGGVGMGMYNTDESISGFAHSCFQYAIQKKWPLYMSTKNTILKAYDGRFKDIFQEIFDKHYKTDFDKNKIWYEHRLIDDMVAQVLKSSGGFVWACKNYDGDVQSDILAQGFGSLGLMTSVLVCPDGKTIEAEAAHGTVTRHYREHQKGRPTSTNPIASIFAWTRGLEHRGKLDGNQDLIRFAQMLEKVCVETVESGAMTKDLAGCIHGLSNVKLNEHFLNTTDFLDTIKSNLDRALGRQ
Method in brief: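 Remaining cofactor measured fluorimetrically: diaphorase/resazurin Stop Mix […], halting the reaction. Before that, mutant enzyme and compound sat 1 h at RT, then substrate mix (4 μM NADPH, 1.6 mM α-KG) was added for 16 h at RT.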

HT1080 cells = assay: Cellular assay for IDH1m R132C inhibitors, 2-HG by LC-MS in HT1080 cells; type: cell-based; settings: Homo sapiens, HT-1080
Method in brief: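 HT1080 cells at 5000 cells/well were treated with compound (0.2% DMSO final). After 48 h, 2-HG in the medium was measured by LC-MS. Viability was read by CellTiter-Glo luminescence at 72 h.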

[4] = tested on: U87MG pLVX-IDH2 R140Q-neo cells; assay: U87MG pLVX-IDH2 R140Q-neo cell based assay, 2-HG by LC-MS; settings: Homo sapiens, U-87 MG
[5] = tested on: Neurosphere cells (TS603); assay: Cellular assay for IDH1m R132H inhibitors, 2-HG by LC-MS in neurosphere cells (TS603); type: cell-based; settings: 2-HG in media at 48 hours
Method in brief: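 TS603 neurosphere cells in NeuroCult medium were dosed with compound (0.25% DMSO final) at 37 C, 5% CO2. After 48 hours, medium 2-HG was measured by LC-MS. At 72 hours, viability was read by CellTiter-Glo luminescence.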

[6] = IDH1 wt/R132H heterodimer, NADPH/NADP, not saturated, read-out: IDH1 wt/R132H NADPH/NADP IC50 not saturated

IDH1 wt/IDH1 R132H heterodimer, sequence (O75874 whole entry R132H): as the sequence (O75874 whole entry R132C) above, with C132H counted along it
IDH1 wt/IDH1 R132H heterodimer, sequence (O75874 whole entry, stated change not applied): as the sequence (O75874 whole entry R132C) above, with C132R counted along it

| Structure (SMILES) | IC50 [1, 6] | IC50 [2] | IC50 [3] | IC50 (IDH2 R140Q) | IC50 (HT1080 cells) | IC50 [4] | IC50 [5] | IC50 ([1]; IDH1 wt/IDH1 R132H heterodimer, 300 μM NADP (saturated), read-out: IDH1 wt/R132H NADPH/NADP IC50 saturated) |
| --- | --- | --- | --- | --- | --- | --- | --- | --- |
| FC1(F)CCC(Nc2nc(NC3CCNC3)nc(-c3cccc(C(F)(F)F)n3)n2)C1 (stereo not drawn) [Compound 91] | > 1000 nM | ≥ 1000 nM |  |  |  |  |  |  |
| CC(=O)N1CCC(Nc2nc(NC3CCC(F)(F)C3)nc(-c3cccc(C(F)(F)F)n3)n2)C1 (stereo not drawn) [Compound 55] | 100 to 1000 nM | 50 to 100 nM |  |  |  |  |  |  |
| CC(C)(C)OC(=O)N1CCC(Nc2nc(NC3CCC(F)(F)C3)nc(-c3cccc(C(F)(F)F)n3)n2)C1 (stereo not drawn) [Compound 90] | 100 to 1000 nM | 50 to 100 nM |  |  |  |  |  |  |
| CS(=O)(=O)N1CCC(Nc2nc(NC3CCC(F)(F)C3)nc(-c3cccc(C(F)(F)F)n3)n2)C1 (stereo not drawn) [Compound 56] | 50 to 100 nM | < 50 nM |  |  |  |  |  |  |
| N#Cc1cc(F)cc(Nc2nc(NC3CCC(F)(F)C3)nc(-n3ccc(C(F)(F)F)n3)n2)c1 (stereo not drawn) [Compound 112] | < 50 nM |  | < 50 nM | < 50 nM | 100 to 1000 nM | < 50 nM | < 50 nM |  |
| CC(F)(F)c1cc(Nc2nc(NC3CCC(F)(F)C3)nc(-c3cccc(C(F)(F)F)n3)n2)ccn1 (stereo not drawn) [Compound 163] | < 50 nM |  | 50 to 100 nM | < 50 nM | 100 to 1000 nM | < 50 nM | < 50 nM |  |
| FC1(F)CC(CNc2nc(Nc3ccnc(C(F)(F)F)c3)nc(-c3cccc(C(F)(F)F)n3)n2)C1 [Compound 221] | < 50 nM |  | 100 to 1000 nM | < 50 nM | > 1000 nM | < 50 nM | < 50 nM |  |
| FC(F)c1csc(-c2nc(NC3CCC(F)(F)CC3)nc(NC3CCC(F)(F)CC3)n2)n1 [Compound 205] | < 50 nM |  | 100 to 1000 nM | < 50 nM | 50 to 100 nM | < 50 nM | < 50 nM |  |
| FC(F)c1cncc(-c2nc(NC3CCC(F)(F)CC3)nc(NC3CCC(F)(F)CC3)n2)n1 [Compound 186] | < 50 nM |  | 100 to 1000 nM | < 50 nM | 100 to 1000 nM | < 50 nM | < 50 nM |  |
| FC1(F)CCC(Nc2nc(NC3CCC(F)(F)CC3)nc(-c3nc(C(F)(F)F)cs3)n2)CC1 [Compound 183] | < 50 nM |  | 100 to 1000 nM | < 50 nM | 50 to 100 nM | < 50 nM | < 50 nM |  |
| CC(Nc1nc(Nc2ccnc(C(F)(F)F)c2)nc(-c2cccc(C(F)(F)F)n2)n1)C(F)(F)F (stereo not drawn) [Compound 171] | < 50 nM |  | 50 to 100 nM | < 50 nM | 100 to 1000 nM | < 50 nM | < 50 nM |  |
| FC1(F)CC[C@H](Nc2nc(N[C@H]3CCC(F)(F)C3)nc(-c3cccc(C(F)(F)F)n3)n2)C1 [Compound 118] | < 50 nM |  | < 50 nM | < 50 nM | < 50 nM | < 50 nM | < 50 nM |  |
| CCC(Nc1nc(NC(CC)C(F)(F)F)nc(-c2cccc(Cl)n2)n1)C(F)(F)F (stereo not drawn) [Compound 103] | < 50 nM |  | < 50 nM | < 50 nM | < 50 nM | < 50 nM | < 50 nM |  |
| CC(Nc1nc(Nc2ccnc(C3(C#N)CC3)c2)nc(-n2ccc(C(F)(F)F)n2)n1)C(F)(F)F (stereo not drawn) [Compound 201] | < 50 nM |  | 50 to 100 nM | < 50 nM | 50 to 100 nM | < 50 nM | < 50 nM |  |
| N#Cc1cc(F)cc(Nc2nc(NC3CCC(F)(F)C3)nc(-c3nc(C(F)(F)F)cs3)n2)c1 (stereo not drawn) [Compound 132] | < 50 nM |  | < 50 nM | < 50 nM | 100 to 1000 nM | < 50 nM | < 50 nM |  |
| Nc1ccc(F)c(-c2nc(NC3CCC(F)(F)CC3)nc(NC3CCC(F)(F)CC3)n2)n1 [Compound 249] | 50 to 100 nM |  | > 1000 nM | < 50 nM | 100 to 1000 nM | 100 to 1000 nM | 50 to 100 nM |  |
| FC1(F)CC[C@@H](Nc2nc(Nc3ccnc(C(F)(F)F)c3)nc(-c3cncc(C(F)(F)F)n3)n2)C1 [Compound 116] | < 50 nM |  | < 50 nM | < 50 nM | 100 to 1000 nM | < 50 nM | < 50 nM | < 50 nM |
| N#CC1(c2cc(Nc3nc(NC4CC(F)(F)C4)nc(-n4ccc(C(F)(F)F)n4)n3)ccn2)CC1 [Compound 169] | < 50 nM |  | < 50 nM | < 50 nM | < 50 nM | < 50 nM | < 50 nM |  |
| FC1(F)CCC(Nc2nc(NC3CC(F)(F)C3)nc(-c3cccc(C(F)(F)F)n3)n2)CC1 [Compound 143] | < 50 nM |  | < 50 nM | < 50 nM | 50 to 100 nM | < 50 nM | < 50 nM |  |
| FC1(F)CCCC1Nc1nc(NC2CCCC2(F)F)nc(-c2cccc(Cl)n2)n1 (stereo not drawn) [Compound 157] | < 50 nM |  | < 50 nM | 50 to 100 nM | < 50 nM | 50 to 100 nM | < 50 nM |  |
| N#Cc1cc(F)cc(Nc2nc(NC3CC(F)(F)C3)nc(-c3nc(C(F)(F)F)cs3)n2)c1 [Compound 122] | < 50 nM |  | < 50 nM | < 50 nM | 50 to 100 nM | < 50 nM | < 50 nM |  |
